In article PMC10958225, “Therapeutic potential of orally applied KB-R7943 in streptozotocin-induced neuropathy in rats” (Heliyon, 2024):

Columns and labels:
[1] = system: STZ-treated rats with neuropathy; experiment: Forced swim test (FST); assay type: in vivo, rat; details: 10 mg/kg p.o. once daily from day 28, test on day 41, 5-min test
Experimental: (§1) On the day of diabetic state induction, rats were deprived of food for 6 h (from 8 a.m. to 2 p.m.). A single i.p. injection was applied with 55 mg/kg STZ in the ice-cold citrate buffer (0.1 M pH 4.4). The observed polydipsia, polyuria, reduced thriving with lower body weight, and poor coating appearance indirectly indicated the development of diabetes. On day 28, after 6 h of fasting, blood glucose was measured with an Xpress Statstrip Glucometer (Nova Biomedical Corporation, Waltham, MA, USA) from the tail vein. A cut-off value of blood glucose >13 mmol/l was adopted. […] Controls were once i.p. injected with ice-cold citrate buffer 0.1 M pH 4.4 only.
(§2) Three animals per cage were housed for the experiment 2 (Fig. 3B). Rats were gently manipulated daily before undertaking the actual behavior tests. […] Body weight (BW), coat score (CS), CPT, R–S, and FT were evaluated on day 28th post-STZ, and after that, rats were distributed into the treatment groups as follows. • C-Veh – Controls, vehiculum treatment (n = 12) • NP-Veh – STZ-treated rats with neuropathy, vehiculum treatment (n = 12) • NP-KB-R7943 – 5 mg - STZ-treated rats, with neuropathy, KB-R7943 5 mg/kg treatment (n = 12) • NP-KB-R7943 – 10 mg – STZ-treated rats, with neuropathy, KB-R7943 10 mg/kg (n = 12) • NP-AMT – 10 mg - STZ-treated rats, with neuropathy, amitriptyline 10 mg/kg (n = 12). […]

[2] = system: STZ-treated rats with neuropathy; experiment: Coat state score; assay type: in vivo, rat; details: chronic p.o. treatment from day 28, day 42
Experimental: as §1
as §2, with “3B).” for “3B). Rats were gently manipulated daily before undertaking the actual behavior tests.”
Coat state, water consumption, and body weight were evaluated weakly. […] Water consumption was measured per cage. […]

NCX3 = system: NCX3; set-up: method as in PMID 9688596; details: cited from earlier work

N=C(N)SCCc1ccc(OCc2ccc([N+](=O)[O-])cc2)cc1 [KB-R7943, [(2-{4-[(4-nitrophenyl)methoxy]phenyl}ethyl)sulfanyl]methanimidamide]
immobility time in FST [1]: 131.67 ± 29.80 s | effect on coat score [2]: ameliorated | potency as inhibitor of NCX3 relative to NCX1 and NCX2 (NCX3): three-fold more potent inhibitor of NCX3 than NCX1 and NCX2
